Laboratory results reported in US9522187B2, “Cancer therapy using beta glucan and antibodies” (University of Louisville Research Foundation, Inc., priority 2002, dated 2016).
One block for each substance: values may come before it.

Assays:
[1] = test system: Human NK cells; test: β-glucan and CR3-dependent stimulation of NK cell cytokine secretion, ELISA (FIG. 13); type: cell-based; settings: 18 hours at 37° C.; particulate yeast β-glucan and grifolan 2 g/ml, MP β-glucan and SZP 2.0 μg/ml
Description: The function of NK cells in mediating host defense includes both direct cytotoxicity of tumor cells and the secretion of cytokines such as TNF-α and IFN-γ that can potentially regulate immune responses and recruit tumoricidal macrophages. […] Human NK cells were cultured with either particulate yeast β-glucan or soluble CR3-binding polysaccharides for 18 hours at 37° C. Culture supernatants were then analyzed for TNF-α by ELISA. […] Anti-CR3 blocks both β-glucan binding to CR3, as well as the binding of primed CR3 to iC3b on the EC3bi target cells.

[2] = biological target: T1, CR3 (Homo sapiens, UniProt P11215); test: Inhibition of SZP-FITC staining of neutrophils by unlabeled polysaccharides; type: binding; settings: compared with soluble yeast MP β-glucan or SZP
T1 construct: endogenous in cells
Description: Neutrophils were incubated at 4° C. with graded concentrations of β-glucans (SZP, laminarin, MP β-glucan, barley β-glucan, and lentinan), α-mannan or dextran for 15 minutes and then stained by addition of 1.0 mg/ml of SZP-FITC and incubated for an additional 15 minutes at 4° C. Percentage inhibition was then compared with polysaccharide concentration. […] Similar results were obtained when the same unlabeled polysaccharides were examined for inhibition of laminarin β-glucan-FITC staining. The rank order for inhibiting activity for both experiments was SZP>laminarin>MP β-glucan. However, CM β-glucan (carboxymethyl β-glucan from yeast), barley β-glucan, and lentinan inhibited laminarin-FITC staining more efficiently than they inhibited SZP-FITC staining.

[3] = test system: human LAN-1 neuroblastoma; test: Oral barley β-glucan with antibody against LAN-1 neuroblastoma xenograft (FIG. 10); type: in vivo, athymic BALB/c mice; settings: β-glucan daily by gavage for 21-29 days; 3F8 i.v. twice weekly
Description: Neuroblastoma cells were xenografted subcutaneously in athymic BALB/c mice. Treatment started in groups of 5 mice, 2 weeks after tumor implantation when visible tumors reached 0.7-0.8 cm in diameter. The β-glucan groups was treated with […] daily by gavage for a total of 21-29 days. Monoclonal antibodies (3F8) were administered i.v. at a dose of […] twice weekly. Tumor size was measured from the first day of treatment, and the product of the largest diameter was expressed as a percentage of the size on day zero.

[4] = test system: iC3b-opsonized breast tumor cells; test: β-glucan priming of murine neutrophil CR3 for cytotoxicity (FIG. 4); type: cell-based; settings: normal murine neutrophils
Description: The effect of β glucan priming of murine neutrophil CR3 on subsequent cytotoxic triggering by iC3b-opsonized breast tumor cells is shown in FIG. 4. […] This activity disappears, however, when antibody to the CD11b (murineCR3 equivalent) is added, interfering with the receptor's ability to bind to iC3b. […] Adding antibody against CD11b had little effect on CD11b-deficient neutrophils, as expected.

[5] = test system: RMA-S lymphoma; test: Survival of mice with RMA-S hepatic lymphomas treated with 14.G2a and/or β-glucan (FIG. 16); type: in vivo, C57B1/6 mice; settings: therapy from day 5 for 3 weeks
Description: The C57B1/6 lymphoma EL-4, that highly expresses membrane GD2 ganglioside, was provided by Dr. Nai-Kong V. Cheung. Normal C57B1/6 mice were injected with 3×10^5 EL-4 cells i.v. to generate liver tumors (Zhang, H., et al., Cancer Res., 58: 2844-2849 (1998)). Ten days later, 4 groups of 6 mice were given i.v. 100 μl doses of: a) PBS (control group), b) SZP β-glucan (4 mg/ml) repeated daily, c) 3F8 mAb to GD2 ganglioside (2 mg/ml) repeated every 3rd day, or d) both daily β-glucan and 3F8 mAb every 3rd day. After 2 weeks of therapy, the mice were sacrificed and their livers were removed and weighed in comparison to the livers of a group of normal tumor-free mice. The net weight of liver tumors was calculated by subtracting the weight of a normal liver (1.0 g) from the weights of the livers from tumor-bearing mice. A similar liver tumor model was carried out using the C57B1/6 lymphoma RMA-S that similarly expresses GD2 ganglioside but is defective in peptide loading of MHC class I (kindly provided by Dr. Olivera J. Finn, Pittsburgh Cancer Institute, Pittsburgh, Pa.) in combination with 14.G2a mAb to GD2 ganglioside (100 μg, given i.v. every 3rd day). Mice were similarly divided into 4 groups that were treated beginning 5 days after i.v. injection of 3×10^5 cells with: 1) i.v. PBS (control), 2) i.v. NSG β-glucan (400 μg per day), 3) 14.G2a mAb, or 4) both NSG β-glucan and 14.G2a mAb. […]

[6] = test system: RMA-S-MUC1 tumor cells; test: s.c. RMA-S-MUC1 tumor therapy with 14.G2a or BCP8 mAb and/or NSG β-glucan (FIG. 17B-C, 18B-C); type: in vivo, C57B1/6 mice; settings: 2-week therapy, observed for a 4-month period
Description: Three different tumor therapy protocols are shown. FIG. 17A is a graph showing Pta64 therapy with 11CI anti-MMTV mAb combined with glucan. FIG. 17B is a graph showing RMA-S-MUC1 therapy with i.v. 14 G2a anti-GD2 mab combined with glucan. FIG. 17C is a graph showing RMA-S-MUC1 therapy with i.v. BCP8 anti-MUC1 mab combined with glucan. After tumor cells were implanted, small tumors were allowed to form over 5-9 days before immunotherapy was carried out for a total period of 14 days. […] In graphs B and C, C57B1/6 mice were implanted s.c. with RMA-S-MUC1 tumor cells and then 5 days later treated with either 14.G2a anti-GD2 ganglioside and/or NSG β-glucan (300 μg per day) or BCP8 IgG2b […] and/or NSG β-glucan ([…] per day). […] Mean values and standard errors (SE) of the mean are shown.
(§1) RMA-S cells transfected with human MUC1 were also provided by Dr. Finn (Soares, M. M., et al., J. Immunol., 166: 6555-6563 (2001)), and 1×10^6 cell were implanted s.c. in C57B1/6 mice in or near a mammary fat pad. […]

[7] = test system: Lewis Lung carcinoma tumor cells transfected with human MUC1 (LL/2-MUC1); test: s.c. LL/2-MUC1 Lewis lung carcinoma therapy in C3-deficient versus wild-type mice (FIG. 21, 22); type: in vivo, C57B1/6 mice
Description: C3-deficient (C3^−/−) mice and their wild-type littermates on a C57BL/6 background were implanted s.c. with 1×10^6 Lewis Lung carcinoma tumor cells transfected with human MUC1 (LL/2-MUC1). After allowing 7 days for development of small tumors, mice were treated with BCP8 IgG2b anti-MUC1 mAb (200 μg every 3rd day) and/or NSG β-glucan (400 μg daily) for a total therapy period of 3 weeks. […] Mean values±SE of the mean are shown.
Lewis lung carcinoma cells (LL/2, CRL-1642) originally derived from C57B1/6 mice were obtained from the ATCC and transfected with a plasmid containing cDNA for human MUC1 that was provided by Dr. Olivera Finn (Soares, M. M., et al., J. Immunol., 166: 6555-6563, 2001.). A LL/2 line expressing a uniformly high surface density of MUC1 was selected by FACS sorting of cells stained with BCP8-FITC mAb (MoFlo High Speed Cell Sorter, Dako-Cytomation, Fort Collins, Colo.). A further selection was made by passaging the cell line two times in C57B1/6 mice given the cells s.c. A tumor line was selected that both expressed uniformly high levels of surface MUC1 and was capable of generating s.c. tumors in C57B1/6 injected with as few as 5×10^5 cells. Therapy of mice bearing these s.c. tumors was initiated after 7 days when tumors were only 1-2 mm in diameter. Four groups of six C3-deficient or their wild-type littermate C57B1/6 mice were treated with: a) i.v. PBS every 3rd day (control); b) 400 μg of NSG β-glucan given i.v. daily; c) 200 μg of BCP8 anti-MUC1 mAb given i.v. every 3rd day; d) combined therapy with BCP8 mAb and NSG β-glucan. Therapy was given for 3 weeks with measurement of tumor diameters every 3rd day, and mice were sacrificed when tumors reached 15 mm diameter. Mice were observed over a total period of 90 days for tumor-free survival.

[8] = test system: EL-4 lymphoma; test: mAb and/or β-glucan therapy of hepatic EL-4 lymphoma (FIG. 9, FIG. 15); type: in vivo, C57B1/6 mice; settings: therapy from day 10 for 2 weeks; SZP β-glucan 100 μl of 4 mg/ml i.v. daily; 3F8 100 μl of 2 mg/ml i.v. every 3rd day
Description: Mice were injected with the EL-4 cells i.v., a protocol known to result in liver metastases. Ten days later, the mice were given daily i.v. doses of β-glucan alone, 3F8 mAb to GD2 ganglioside (a prominent tumor antigen of EL-4 cells), or 3-glucan plus 3F8 mAb. The 3F8 mAb is IgG3 and is a potent activator of complement and also mediates ADCC. […] As expected, the β-glucan had little effect on its own since the tumors bore little or no iC3b.
The C57B1/6 lymphoma EL-4, that highly expresses membrane GD2 ganglioside, was provided by Dr. Nai-Kong V. Cheung. Normal C57B1/6 mice were injected with 3×10^5 EL-4 cells i.v. to generate liver tumors (Zhang, H., et al., Cancer Res., 58: 2844-2849 (1998)). Ten days later, 4 groups of 6 mice were given i.v. 100 μl doses of: a) PBS (control group), b) SZP β-glucan (4 mg/ml) repeated daily, c) 3F8 mAb to GD2 ganglioside (2 mg/ml) repeated every 3rd day, or d) both daily β-glucan and 3F8 mAb every 3rd day. After 2 weeks of therapy, the mice were sacrificed and their livers were removed and weighed in comparison to the livers of a group of normal tumor-free mice. The net weight of liver tumors was calculated by subtracting the weight of a normal liver (1.0 g) from the weights of the livers from tumor-bearing mice. […]

[9] = test system: MMT mammary carcinoma; test: β-glucan therapy of MMT mammary carcinoma in normal and C3-deficient 129/J mice (FIG. 8); type: in vivo; settings: daily i.v. therapy
Source text: The requirement for C3 in β-glucan therapy was confirmed in experiments with C3-deficient 129/J mice implanted with the MMT mammary carcinoma. Twelve normal (C3+/+) and 12 C3-deficient (C3−/−) 129/J mice were implanted with the MMT mammary carcinoma tumor cell line and palpable tumors were allowed to form before beginning daily i.v. therapy of groups of 6 mice each with PBS or β-glucan. A similar protocol was used with normal (CD+/+) and CR3-deficient (CD11b-knockout; Cd11b−/−) BALB/c mice implanted with Ptas64 mammary tumors.

[10] = test system: RMA-S-MUC1 tumor cells; test: s.c. RMA-S-MUC1 tumor therapy in CR3-deficient versus wild-type mice (FIG. 19, 20); type: in vivo, C57B1/6 mice
Description: FIGS. 19A-19B are graphs showing the enhancement of tumor regression mediated by NSG β-glucan requires leukocyte CR3 and fails in CR3-deficient (CD11b^−/−) mice. FIG. 19A is a graph showing the tumor diameter vs. therapy of wild type mice. FIG. 19B is a graph showing the tumor diameter vs. therapy of CR3 deficient mice. […] Tumor measurements were made at the indicated times (FIGS. 19A-19B) and then survival was monitored (FIGS. 20A-20B). Mice received 14.G2a anti-GD2 ganglioside mAb (100 μg every 3rd day) and/or NSG β-glucan (400 μg daily). There was no difference in the rate of tumor regression produced by mAb therapy alone in the CR3-deficient versus wild-type mice and there was no β-glucan enhancement of mAb-mediated tumor regression in the CR3-deficient mice. […] Mean values±SE of the mean are shown.
as §1

[11] = test system: advanced low-grade or slow-growing NHL; settings: patients who completed treatment; cited from earlier work
[12] = biological target: T1, CR3; test: Neutrophil fluorescence staining by FITC-labeled polysaccharides (flow cytometry); type: binding; settings: neutrophils
Source text: Fluorescence intensity values obtained with individual polysaccharide-FITC conjugates cannot be compared, since the molar ratio of FITC to polysaccharide is likely to differ and cannot be readily calculated.

Substance: grifolan
NK cell cytokine secretion in the absence of target cells, in words [1]: secretion of both TNF-α and IL-6

affinity for CR3 (in words) [2]: relatively low affinity for CR3
Substance: (1,3),(1,4)-β-D-glucan [barley β-glucan]
tumor growth (tumor size as percentage of day zero), in words [3]: neither β-glucan or mAb alone showed much effect

Substance: β-glucan
cytotoxicity towards iC3b-opsonized breast tumor cells, in words [4]: high level of cytotoxicity
survival, in words [5]: no therapeutic benefit
survival [6]: 20%
regression and survival, in words ([7]; C3-deficient mice): neither mAb nor β-glucan, separately or combined, elicited any regression
survival, in words ([7]; wild-type mice): survival advantage compared to mAb alone
tumor regression, in words ([7]; wild-type mice, BCP8 200 μg every 3rd day, NSG β-glucan 400 μg daily, 3 weeks): lower level of regression
reduction in liver tumor net weight compared to untreated controls [8]: 25.6%
tumor reduction ([9]; C3-deficient (C3−/−) 129/J mice): no significant tumor reduction
tumor reduction ([9]; normal (C3+/+) 129/J mice): 79%
tumor regression, in words ([10]; CR3-deficient mice): no regression
mice remaining tumor-free (survival) ([10]; wild-type mice, 14.G2a 100 μg every 3rd day, NSG β-glucan 400 μg daily, 21 days): no survivors

Substance: rituximab: monoclonal antibody used to treat a type of non-Hodkin's lymphoma
patients having complete remission [11]: 6%
patients whose tumors shrunk by at least one half [11]: 48%

Polysaccharide-FITC Concentration Required for Maximum Specific Fluorescence Staining (Saturation of Receptor Binding Sites) [12]: No specific staining
Specific Fluorescence Mean Channel at Saturation (Total-Nonspecific Fluorescence Obtained in the Presence of Excess of Unlabeled Polysaccharide) [12]: 0
Substance: Dextran-FITC
